Results taken from paper PMC6017630, “Identification of the NADPH Oxidase 4 Inhibiting Principle of Lycopus europaeus” (Molecules : A Journal of Synthetic Chemistry and Natural …, 2018).

Legend:
Nox5 = target: T1, Nox5 (Homo sapiens, UniProt Q96PH1); assay: chemiluminescence of ROS in ionomycin-stimulated Nox5-transfected HEK cells; type: cell-based
T1 sequence (Q96PH1 1-765): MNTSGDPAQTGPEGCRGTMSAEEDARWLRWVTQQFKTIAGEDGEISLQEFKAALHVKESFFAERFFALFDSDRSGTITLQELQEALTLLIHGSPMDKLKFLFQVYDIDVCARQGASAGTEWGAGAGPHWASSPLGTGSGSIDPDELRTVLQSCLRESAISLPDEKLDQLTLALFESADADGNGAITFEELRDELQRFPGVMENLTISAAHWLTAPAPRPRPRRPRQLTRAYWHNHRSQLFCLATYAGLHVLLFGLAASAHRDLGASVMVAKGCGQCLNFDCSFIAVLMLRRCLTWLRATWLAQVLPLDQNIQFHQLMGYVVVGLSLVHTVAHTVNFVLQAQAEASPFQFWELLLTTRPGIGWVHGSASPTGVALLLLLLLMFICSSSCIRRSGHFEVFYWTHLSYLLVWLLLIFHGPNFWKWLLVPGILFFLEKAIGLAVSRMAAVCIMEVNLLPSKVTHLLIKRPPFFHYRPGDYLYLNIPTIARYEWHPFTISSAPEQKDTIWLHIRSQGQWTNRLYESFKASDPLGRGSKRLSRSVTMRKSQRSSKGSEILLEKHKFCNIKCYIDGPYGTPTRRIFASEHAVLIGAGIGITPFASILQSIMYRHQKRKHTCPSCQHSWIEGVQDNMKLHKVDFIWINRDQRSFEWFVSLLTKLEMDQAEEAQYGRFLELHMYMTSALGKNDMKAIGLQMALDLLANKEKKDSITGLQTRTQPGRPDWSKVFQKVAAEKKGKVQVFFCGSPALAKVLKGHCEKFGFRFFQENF
Description: chemiluminescence of ROS in ionomycin-stimulated Nox5-transfected HEK cells on Nox5 | stably transfected Nox5 overexpressing HEK cells were stimulated with ionomycin. This activity could be quenched completely by DPI

NADPH oxidase 4 (Nox4) = target: T2, NADPH oxidase 4 (Nox4) (Homo sapiens, UniProt Q9NPH5); assay: luminol chemiluminescence of ROS in HEK cells expressing Nox4, normalized to pcDNA cells; mitochondrial ROS scavenging counterscreen; type: cell-based
T2 sequence (Q9NPH5 1-578): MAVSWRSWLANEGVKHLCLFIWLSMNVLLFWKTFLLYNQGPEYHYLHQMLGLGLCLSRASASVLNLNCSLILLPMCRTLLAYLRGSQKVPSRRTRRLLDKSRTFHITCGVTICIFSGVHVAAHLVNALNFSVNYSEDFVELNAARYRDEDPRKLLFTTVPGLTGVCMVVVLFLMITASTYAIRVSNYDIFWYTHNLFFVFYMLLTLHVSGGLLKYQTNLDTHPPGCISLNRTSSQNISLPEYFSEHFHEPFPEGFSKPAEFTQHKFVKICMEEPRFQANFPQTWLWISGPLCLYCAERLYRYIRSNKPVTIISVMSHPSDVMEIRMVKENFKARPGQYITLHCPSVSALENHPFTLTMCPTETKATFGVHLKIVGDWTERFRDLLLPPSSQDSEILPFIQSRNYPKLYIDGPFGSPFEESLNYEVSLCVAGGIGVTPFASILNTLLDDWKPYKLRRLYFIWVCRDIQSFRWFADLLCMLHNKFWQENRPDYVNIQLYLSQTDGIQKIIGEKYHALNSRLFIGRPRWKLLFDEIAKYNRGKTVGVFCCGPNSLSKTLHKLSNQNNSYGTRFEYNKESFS

Compound	chemiluminescence of ROS in ionomycin-stimulated Nox5-transfected HEK cells (Nox5)	IC50 (NADPH oxidase 4 (Nox4)) [nM]
c1ccc2c(c1)[I+]c1ccccc1-2 [DPI, diphenyleneiodonium]	stably transfected Nox5 overexpressing HEK cells were stimulated with ionomycin. This activity could be quenched completely by DPI	
O=C(/C=C/c1ccc(O)c(O)c1)O[C@H](Cc1ccc(O)c(O)c1)C(=O)O [RA, rosmarinic acid]		1000
